These results are taken from ChEMBL document CHEMBL1201862, “PubChem BioAssay data set” (2004).

Each structure is given as a SMILES string.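 These data come from cells grown in 96-well plates and exposed to compound for 48 hours at five concentrations. Abbreviation: GI50, concentration required for 50% inhibition of growth.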 Calls of active or inactive are those of the source. Rule as the data show it: active = GI50 up to about 1.1 µM and inactive = higher.

Common to all, as to assay: NCI-60 cell line screen, 48 h
Test [1] deals with KM12.
For test [2], the system named is KM-20L2.
In test [3] the test system is NCI-H522.
In test [4] the test system is DMS-114.
Test [5] relates to NCI-H226.
The subject of test [6] is COLO 205.
The test system of test [7] is SN12C.
Test [8] concerns SK-OV-3.
For test [9], the system named is HT-29.
In test [10] the test system is OVCAR-5.
Test [11] relates to CCRF-CEM.
The test system of test [12] is SNB-78.
The subject of test [13] is NCI-H460.
In test [14] the test system is SF-268.
The test system of test [15] is UACC-62.
Test [16] concerns IGROV-1.
The test system of test [17] is MDA-MB-231.
Test [18] has as its system MDA-N.

On to `O=c1c2cc(Br)cc(Br)c2nc(CCCl)n1CCO`, for which the GI50 is > 100 µM (inactive) in [1]; > 100 µM (inactive) in [2]; 62.4 µM (inactive) in test [3]; 42.4 µM (inactive) in test [4]; 39 µM (inactive) in test [5]; > 100 µM (inactive) in test [6]. Also, the GI50 is 97.5 µM (inactive) in test [7]; 58.7 µM (inactive) in [8]; > 100 µM (inactive) in test [9]; > 100 µM (inactive) in [10]; 41 µM (inactive) in [11]; > 100 µM (inactive) in test [12]. For the same compound, the GI50 was > 100 µM (inactive) in [13], 47.1 µM (inactive) in test [14], 60.8 µM (inactive) in [15] and 75.9 µM (inactive) in test [16].

`Cc1cc(NS(=O)(=O)c2ccc(Nc3c4ccccc4nc4c(C(=O)N5CCN(CCO)CC5)cccc34)cc2)no1`: the GI50 in test [1] is > 100 µM (inactive); in [2], > 100 µM (inactive); in [3], 79.4 µM (inactive); in test [4] it was > 100 µM (inactive); in test [5] it was > 100 µM (inactive); in test [6], > 100 µM (inactive). Besides, the GI50 in test [7] was > 100 µM (inactive); in test [8], > 100 µM (inactive); in test [9], > 100 µM (inactive); in test [10], > 100 µM (inactive); in test [11], 43.9 µM (inactive); in [12], > 100 µM (inactive). The GI50 in test [13], in [14], in test [15] and in [16] was > 100 µM (inactive) throughout.

As for `CCN(CC)CCOc1ccc(/C=C(\C#N)c2ccc(OCCN(CC)CC)cc2)cc1`, the GI50 in test [1] was 10.7 µM (inactive); in test [2], 1.56 µM (inactive); in test [3], 11.3 µM (inactive); in test [4], 10.8 µM (inactive); in test [5], 39.4 µM (inactive); in test [6] it was 10.8 µM (inactive). Further, the GI50 in test [7] is 45.1 µM (inactive); in test [8] it was 28.2 µM (inactive); in test [9] it was 1.43 µM (inactive); in test [10], 11.6 µM (inactive); in test [11], 3.44 µM (inactive); in test [12], 20.5 µM (inactive). Also, the GI50 was 18.1 µM (inactive) in test [13], 19.1 µM (inactive) in test [14], 16.6 µM (inactive) in test [15] and 22.7 µM (inactive) in test [16].

In the case of `N#Cc1cc([N+](=O)[O-])ccc1NC(=O)C(=O)Nc1n[nH]c(N)n1`, the GI50 is > 100 µM (inactive) in [1]; > 100 µM (inactive) in test [2]; > 100 µM (inactive) in test [3]; > 100 µM (inactive) in test [4]; 86.3 µM (inactive) in test [5]; > 100 µM (inactive) in test [6]. Moreover, the GI50 in test [7], in [8], in test [9], in test [10], in test [11] and in [12] was > 100 µM (inactive) in each case. Besides, the GI50 in test [13], in [14], in [15] and in test [16] was > 100 µM (inactive) throughout.

As to `CCOC(=O)C/C(N)=C(\C#N)C(=O)OCC`, the GI50 in test [1], in test [2], in test [3], in test [4], in [5] and in test [6] was > 100 µM (inactive) each time. The GI50 in [7], in test [8], in test [9], in test [10], in [11] and in [12] was > 100 µM (inactive) each time. For the same compound, the GI50 in test [13], in test [14], in test [15] and in test [16] was > 100 µM (inactive) in each case.

`COc1ccc(C)cc(O)c1=O`: the GI50 in [1] is > 100 µM (inactive); in [2], 40.2 µM (inactive); in test [3], 30.4 µM (inactive); in [4] it was 14 µM (inactive); in [5], > 100 µM (inactive); in test [6], 30.8 µM (inactive). For the same compound, the GI50 in test [7] was 38.5 µM (inactive); in test [8], > 100 µM (inactive); in test [9] it was 44 µM (inactive); in test [10], 68.4 µM (inactive); in test [11], 10.7 µM (inactive); in [12], > 100 µM (inactive). For the same compound, the GI50 in [13] was 17.7 µM (inactive); in test [14] it was 28.6 µM (inactive); in test [15], 22.3 µM (inactive); in test [16], 39.9 µM (inactive).

With `CS(=O)(=O)c1nc(N)nc2nc[nH]c12`, the GI50 in test [1] is > 100 µM (inactive); in test [2] it was > 100 µM (inactive); in [3] it was 74.8 µM (inactive); in test [4], > 100 µM (inactive); in test [5], > 100 µM (inactive); in [6], > 100 µM (inactive). Besides, the GI50 in test [7], in test [8], in [9], in [10], in test [11] and in test [12] was > 100 µM (inactive) in each case. The GI50 in test [13], in test [14], in test [15] and in test [16] was > 100 µM (inactive) throughout.

For `CC(=O)O[C@H]1CCC2[C@@H]3CC[C@]4(C)CC(=O)C=C[C@]4(C)C3CC[C@@]21C` (stereo partly specified), the GI50 in [1] is 20.6 µM (inactive); in test [2] it was 19.4 µM (inactive); in [3], 24.6 µM (inactive); in [4], 11.3 µM (inactive); in test [5], 25.2 µM (inactive); in test [6], 17.2 µM (inactive). The GI50 in [17] is 31.8 µM (inactive); in test [7] it was 24.2 µM (inactive); in test [8], 65.8 µM (inactive); in [9], 18.1 µM (inactive); in [18], 26.4 µM (inactive); in test [10], > 80.5 µM (inactive). Moreover, the GI50 in test [11] is 20.1 µM (inactive); in [12], 14.9 µM (inactive); in test [13], 17.5 µM (inactive); in test [14] it was 21.2 µM (inactive); in test [15], 15.7 µM (inactive); in test [16], 23.8 µM (inactive).

On to `COc1cc([C@@H]2c3cc4c(cc3[C@@H](NCc3ccccc3F)C3COC(=O)[C@@H]32)OCO4)cc(OC)c1O` (stereo partly specified), for which the GI50 in [1] was 3.99 µM (inactive); in [2], 2.71 µM (inactive); in test [3], 0.361 µM (active); in test [4] it was 3.45 µM (inactive); in test [5], 2.06 µM (inactive); in test [6], 17.7 µM (inactive). Moreover, the GI50 in test [7] is 2.62 µM (inactive); in test [8], 2.58 µM (inactive); in test [9], 4.78 µM (inactive); in test [10], 24.8 µM (inactive); in test [11], 1.49 µM (inactive); in [12], 25.8 µM (inactive). Further, the GI50 in test [13] was 0.56 µM (active); in test [14], 4.69 µM (inactive); in test [15], 0.463 µM (active); in test [16], 1.11 µM (active).
